Patent publication US10219516B2, “Molecules having pesticidal utility, and intermediates, compositions, and processes, related thereto” (priority 2015, dated 2019)

Key:
Assay type in all cases: in vivo
[1] = system: Cabbage Looper (Trichoplusia ni, TRIPNI); assay: Bioassay on Cabbage Looper (CL), 128-well diet tray assay; conditions: Trichoplusia ni; Cabbage Looper, 128-well diet tray assay; read-out: CL rating
Method in brief: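 Second-instar larvae, one to five per well, placed on artificial diet treated with 50 μg/cm^2 test molecule in 90:10 acetone-water, dried before infestation. Held 5–7 days at 25° C, 14:10 light-dark; percent mortality averaged over eight wells.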

[2] = system: Yellow Fever Mosquito (Aedes aegypti, AEDSAE); assay: Bioassay on Yellow Fever Mosquito (YFM), 96-well plate larval assay; conditions: Yellow Fever Mosquito, 96-well plate larval assay
Method in brief: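 Compound stocks at 4000 ppm in DMSO were diluted with 90:10 water/acetone, and 15 μL aliquots were dispensed into six replicate plates. About 1-day-old larvae in liver-powder water were added per well. Plates were covered and held at room temperature for 3 days before each well was scored for mortality.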

[3] = system: Beet Armyworm (Spodoptera exigua, LAPHEG); assay: Bioassay on Beet Armyworm (BAW), 128-well diet tray assay; conditions: Beet Armyworm, 128-well diet tray assay, read-out: BAW rating
Method in brief: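 Second instar larvae were exposed to diet treated at 50 μg/cm^2 for five to seven days at 25° C.; mortality was averaged over eight wells.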

SMILES | pest or weed control at 50 µg/cm2 [1] [%] | YFM rating [2] | pest or weed control at 50 µg/cm2 [3] [%]
O=C(Nc1ncc(F)cc1F)c1cc(NC(=O)[C@H]2[C@H](c3ccc(Cl)c(C(F)F)c3)C2(Cl)Cl)ccc1Cl (relative stereo) [F585, 2-Chloro-5-(trans-2,2-dichloro-3-(4-chloro-3-(difluoromethyl)phenyl)cyclopropane-1-carboxamido)-N-(3,5-difluoropyridin-2-yl)benzamide] | 50 to 100 | A (80-100) | 50 to 100
O=C(Nc1ncc(F)cc1F)c1cc(NC(=O)[C@H]2[C@H](c3cc(F)cc(C(F)F)c3)C2(Cl)Cl)ccc1Cl (relative stereo) [F586, 2-Chloro-5-(trans-2,2-dichloro-3-(3-(difluoromethyl)-5-fluorophenyl)cyclopropane-1-carboxamido)-N-(3,5-difluoropyridin-2-yl)benzamide] | 50 to 100 | A (80-100) | 50 to 100
O=C(Nc1ncc(F)cc1F)c1cc(NC(=O)[C@H]2[C@H](c3ccc(F)c(C(F)F)c3)C2(Cl)Cl)ccc1Cl (relative stereo) [F587, 2-Chloro-5-(trans-2,2-dichloro-3-(3-(difluoromethyl)-4-fluorophenyl)cyclopropane-1-carboxamido)-N-(3,5-difluoropyridin-2-yl)benzamide] | 50 to 100 | A (80-100) | 50 to 100
O=C(Nc1ncc(F)cc1F)c1cc(NC(=O)[C@H]2[C@H](c3ccc(C(F)F)c(Cl)c3)C2(Cl)Cl)ccc1Cl (relative stereo) [F588, 2-Chloro-5-(trans-2,2-dichloro-3-(3-chloro-4-(difluoromethyl)phenyl)cyclopropane-1-carboxamido)-N-(3,5-difluoropyridin-2-yl)benzamide] | 50 to 100 | A (80-100) | 50 to 100
O=C(Nc1ncc(F)cc1F)c1cc(NC(=O)[C@H]2[C@H](c3ccc(C(F)F)c(F)c3)C2(Cl)Cl)ccc1Cl (relative stereo) [F589, 2-chloro-5-(trans-2,2-dichloro-3-(4-(difluoromethyl)-3-fluorophenyl)cyclopropane-1-carboxamido)-N-(3,5-difluoropyridin-2-yl)benzamide] | 50 to 100 | A (80-100) | 50 to 100
O=C(Nc1ncc(F)cc1F)c1cc(NC(=O)[C@H]2[C@H](c3cccc(C(F)F)c3)C2(Cl)Cl)ccc1Cl (relative stereo) [F590, 2-Chloro-5-(trans-2,2-dichloro-3-(3-(difluoromethyl)phenyl)cyclopropane-1-carboxamido)-N-(3,5-difluoropyridin-2-yl)benzamide] | 50 to 100 | A (80-100) | 50 to 100
O=C(Nc1ncc(F)cc1F)c1cc(NC(=O)[C@H]2[C@H](c3ccc(C(F)F)cc3)C2(Cl)Cl)ccc1Cl (relative stereo) [F591, 2-Chloro-5-(trans-2,2-dichloro-3-(4-(difluoromethyl)phenyl)cyclopropane-1-carboxamido)-N-(3,5-difluoropyridin-2-yl)benzamide] | 50 to 100 | A (80-100) | 50 to 100
CN(C(=O)c1cc(NC(=O)[C@H]2[C@H](c3cc(Cl)cc(C(F)F)c3)C2(Cl)Cl)ccc1Cl)c1ccc(F)cc1 (relative stereo) [F592, 2-Chloro-5-(trans-2,2-dichloro-3-(3-chloro-5-(difluoromethyl)phenyl)cyclopropane-1-carboxamido)-N-(4-fluorophenyl)-N-methylbenzamide] | 50 to 100 | A (80-100) | 50 to 100
